ChEMBL document CHEMBL4052714, “Synthesis and antibacterial activity of novel 4″-O-(1-aralkyl-1,2,3-triazol-4-methyl-carbamoyl) azithromycin analogs” (2017)
In brackets after ≈: the same amount, converted by molar mass.

Legend:
Format in all cases: functional
Streptococcus pyogenes [1] = assay: Antibacterial activity against erythromycin-resistant Streptococcus pyogenes isolate R2
Staphylococcus aureus [2] = assay: Antibacterial activity against erythromycin-susceptible Staphylococcus aureus ATCC 25923
Streptococcus pyogenes [3] = assay: Antibacterial activity against erythromycin-susceptible Streptococcus pyogenes isolate S2
Staphylococcus aureus [4] = assay: Antibacterial activity against methicillin-susceptible Staphylococcus aureus ATCC 29213
Streptococcus pneumoniae [5] = assay: Antibacterial activity against erythromycin-resistant Streptococcus pneumoniae AB11 expressing ermB/mefA gene
Escherichia coli = assay: Antibacterial activity against Escherichia coli ATCC 25922
Streptococcus pneumoniae [6] = assay: Antibacterial activity against erythromycin-resistant Streptococcus pneumoniae B1 expressing ermB gene
Pseudomonas aeruginosa = assay: Antibacterial activity against Pseudomonas aeruginosa ATCC 27853
Streptococcus pneumoniae [7] = assay: Antibacterial activity against erythromycin-susceptible Streptococcus pneumoniae ATCC 49619
Streptococcus pneumoniae [8] = assay: Antibacterial activity against erythromycin-resistant Streptococcus pneumoniae A22072 expressing mefA gene

CC[C@H]1OC(=O)[C@H](C)[C@@H](O[C@H]2C[C@@](C)(OC)[C@@H](OC(=O)NCc3cn(Cc4ccccc4Cl)nn3)[C@H](C)O2)[C@H](C)[C@@H](O[C@@H]2O[C@H](C)C[C@H](N(C)C)[C@H]2O)[C@](C)(O)C[C@@H](C)CN(C)[C@H](C)[C@@H](O)[C@]1(C)O
MIC (Streptococcus pyogenes [1]): 64 µg/mL (≈ 64.1 µM) | MIC (Staphylococcus aureus [2]): 1 µg/mL (≈ 1 µM) | MIC (Streptococcus pyogenes [3]): 0.03 µg/mL (≈ 0.0301 µM) | MIC (Staphylococcus aureus [4]): 8 µg/mL (≈ 8.02 µM) | MIC (Streptococcus pneumoniae [5]): 0.5 µg/mL (≈ 0.501 µM) | MIC (Escherichia coli): 128 µg/mL (≈ 128 µM) | MIC (Streptococcus pneumoniae [6]): 1 µg/mL (≈ 1 µM) | MIC (Pseudomonas aeruginosa): 32 µg/mL (≈ 32.1 µM) | MIC (Streptococcus pneumoniae [7]): 0.25 µg/mL (≈ 0.251 µM) | MIC (Streptococcus pneumoniae [8]): 0.25 µg/mL (≈ 0.251 µM)

CC[C@H]1OC(=O)[C@H](C)[C@@H](O[C@H]2C[C@@](C)(OC)[C@@H](OC(=O)NCc3cn(Cc4ccccc4C)nn3)[C@H](C)O2)[C@H](C)[C@@H](O[C@@H]2O[C@H](C)C[C@H](N(C)C)[C@H]2O)[C@](C)(O)C[C@@H](C)CN(C)[C@H](C)[C@H]2OC(=O)O[C@@]21C
MIC (Streptococcus pyogenes [1]): 64 µg/mL (≈ 63.8 µM) | MIC (Staphylococcus aureus [2]): 4 µg/mL (≈ 3.99 µM) | MIC (Streptococcus pyogenes [3]): 0.06 µg/mL (≈ 0.0598 µM) | MIC (Staphylococcus aureus [4]): 32 µg/mL (≈ 31.9 µM) | MIC (Streptococcus pneumoniae [5]): 2 µg/mL (≈ 1.99 µM) | MIC (Escherichia coli): 128 µg/mL (≈ 128 µM) | MIC (Streptococcus pneumoniae [6]): 4 µg/mL (≈ 3.99 µM) | MIC (Pseudomonas aeruginosa): 64 µg/mL (≈ 63.8 µM) | MIC (Streptococcus pneumoniae [7]): 0.5 µg/mL (≈ 0.498 µM) | MIC (Streptococcus pneumoniae [8]): 2 µg/mL (≈ 1.99 µM)

CC[C@H]1OC(=O)[C@H](C)[C@@H](O[C@H]2C[C@@](C)(OC)[C@@H](OC(=O)NCc3cn(Cc4ccccc4)nn3)[C@H](C)O2)[C@H](C)[C@@H](O[C@@H]2O[C@H](C)C[C@H](N(C)C)[C@H]2O)[C@](C)(O)C[C@@H](C)CN(C)[C@H](C)[C@@H](O)[C@]1(C)O
MIC (Streptococcus pyogenes [1]): 32 µg/mL (≈ 33.2 µM) | MIC (Staphylococcus aureus [2]): 1 µg/mL (≈ 1.04 µM) | MIC (Streptococcus pyogenes [3]): 0.06 µg/mL (≈ 0.0623 µM) | MIC (Staphylococcus aureus [4]): 8 µg/mL (≈ 8.31 µM) | MIC (Streptococcus pneumoniae [5]): 4 µg/mL (≈ 4.15 µM) | MIC (Escherichia coli): 32 µg/mL (≈ 33.2 µM) | MIC (Streptococcus pneumoniae [6]): 2 µg/mL (≈ 2.08 µM) | MIC (Pseudomonas aeruginosa): 32 µg/mL (≈ 33.2 µM) | MIC (Streptococcus pneumoniae [7]): 0.5 µg/mL (≈ 0.519 µM) | MIC (Streptococcus pneumoniae [8]): 1 µg/mL (≈ 1.04 µM)

CC[C@H]1OC(=O)[C@H](C)[C@@H](O[C@H]2C[C@@](C)(OC)[C@@H](OC(=O)NCc3cn(Cc4ccc(Cl)cc4)nn3)[C@H](C)O2)[C@H](C)[C@@H](O[C@@H]2O[C@H](C)C[C@H](N(C)C)[C@H]2O)[C@](C)(O)C[C@@H](C)CN(C)[C@H](C)[C@@H](O)[C@]1(C)O
MIC (Streptococcus pyogenes [1]): 64 µg/mL (≈ 64.1 µM) | MIC (Staphylococcus aureus [2]): 1 µg/mL (≈ 1 µM) | MIC (Streptococcus pyogenes [3]): 0.03 µg/mL (≈ 0.0301 µM) | MIC (Staphylococcus aureus [4]): 16 µg/mL (≈ 16 µM) | MIC (Streptococcus pneumoniae [5]): 0.5 µg/mL (≈ 0.501 µM) | MIC (Escherichia coli): 64 µg/mL (≈ 64.1 µM) | MIC (Streptococcus pneumoniae [6]): 2 µg/mL (≈ 2 µM) | MIC (Pseudomonas aeruginosa): 32 µg/mL (≈ 32.1 µM) | MIC (Streptococcus pneumoniae [7]): 0.5 µg/mL (≈ 0.501 µM) | MIC (Streptococcus pneumoniae [8]): 1 µg/mL (≈ 1 µM)

CC[C@H]1OC(=O)[C@H](C)[C@@H](O[C@H]2C[C@@](C)(OC)[C@@H](OC(=O)NCc3cn(Cc4ccc(C)cc4)nn3)[C@H](C)O2)[C@H](C)[C@@H](O[C@@H]2O[C@H](C)C[C@H](N(C)C)[C@H]2O)[C@](C)(O)C[C@@H](C)CN(C)[C@H](C)[C@@H](O)[C@]1(C)O
MIC (Streptococcus pyogenes [1]): 64 µg/mL (≈ 65.5 µM) | MIC (Staphylococcus aureus [2]): 1 µg/mL (≈ 1.02 µM) | MIC (Streptococcus pyogenes [3]): 0.03 µg/mL (≈ 0.0307 µM) | MIC (Staphylococcus aureus [4]): 16 µg/mL (≈ 16.4 µM) | MIC (Streptococcus pneumoniae [5]): 1 µg/mL (≈ 1.02 µM) | MIC (Escherichia coli): 32 µg/mL (≈ 32.7 µM) | MIC (Streptococcus pneumoniae [6]): 0.5 µg/mL (≈ 0.512 µM) | MIC (Pseudomonas aeruginosa): 64 µg/mL (≈ 65.5 µM) | MIC (Streptococcus pneumoniae [7]): 0.5 µg/mL (≈ 0.512 µM) | MIC (Streptococcus pneumoniae [8]): 0.5 µg/mL (≈ 0.512 µM)

CC[C@H]1OC(=O)[C@H](C)[C@@H](O[C@H]2C[C@@](C)(OC)[C@@H](OC(=O)NCc3cn(Cc4cccc(Cl)c4)nn3)[C@H](C)O2)[C@H](C)[C@@H](O[C@@H]2O[C@H](C)C[C@H](N(C)C)[C@H]2O)[C@](C)(O)C[C@@H](C)CN(C)[C@H](C)[C@@H](O)[C@]1(C)O
MIC (Streptococcus pyogenes [1]): 64 µg/mL (≈ 64.1 µM) | MIC (Staphylococcus aureus [2]): 1 µg/mL (≈ 1 µM) | MIC (Streptococcus pyogenes [3]): 0.06 µg/mL (≈ 0.0601 µM) | MIC (Staphylococcus aureus [4]): 8 µg/mL (≈ 8.02 µM) | MIC (Streptococcus pneumoniae [5]): 1 µg/mL (≈ 1 µM) | MIC (Escherichia coli): 16 µg/mL (≈ 16 µM) | MIC (Streptococcus pneumoniae [6]): 0.5 µg/mL (≈ 0.501 µM) | MIC (Pseudomonas aeruginosa): 32 µg/mL (≈ 32.1 µM) | MIC (Streptococcus pneumoniae [7]): 0.25 µg/mL (≈ 0.251 µM) | MIC (Streptococcus pneumoniae [8]): 0.25 µg/mL (≈ 0.251 µM)

CC[C@H]1OC(=O)[C@H](C)[C@@H](O[C@H]2C[C@@](C)(OC)[C@@H](O)[C@H](C)O2)[C@H](C)[C@@H](O[C@@H]2O[C@H](C)C[C@H](N(C)C)[C@H]2O)[C@](C)(O)C[C@@H](C)CN(C)[C@H](C)[C@@H](O)[C@]1(C)O [AZITHROMYCIN]
MIC (Streptococcus pyogenes [1]): 128 µg/mL (≈ 171 µM) | MIC (Staphylococcus aureus [2]): 0.25 µg/mL (≈ 0.334 µM) | MIC (Streptococcus pyogenes [3]): 0.03 µg/mL (≈ 0.0401 µM) | MIC (Staphylococcus aureus [4]): 1 µg/mL (≈ 1.34 µM) | MIC (Streptococcus pneumoniae [5]): 256 µg/mL (≈ 342 µM) | MIC (Escherichia coli): 16 µg/mL (≈ 21.4 µM) | MIC (Streptococcus pneumoniae [6]): 128 µg/mL (≈ 171 µM) | MIC (Pseudomonas aeruginosa): 8 µg/mL (≈ 10.7 µM) | MIC (Streptococcus pneumoniae [7]): 0.125 µg/mL (≈ 0.167 µM) | MIC (Streptococcus pneumoniae [8]): 4 µg/mL (≈ 5.34 µM)

CC[C@H]1OC(=O)[C@H](C)[C@@H](O[C@H]2C[C@@](C)(OC)[C@@H](O)[C@H](C)O2)[C@H](C)[C@@H](O[C@@H]2O[C@H](C)C[C@H](N(C)C)[C@H]2O)[C@](C)(OC)C[C@@H](C)C(=O)[C@H](C)[C@@H](O)[C@]1(C)O [CLARITHROMYCIN]
MIC (Streptococcus pyogenes [1]): 128 µg/mL (≈ 171 µM) | MIC (Staphylococcus aureus [2]): 0.12 µg/mL (≈ 0.16 µM) | MIC (Streptococcus pyogenes [3]): 0.03 µg/mL (≈ 0.0401 µM) | MIC (Staphylococcus aureus [4]): 0.25 µg/mL (≈ 0.334 µM) | MIC (Streptococcus pneumoniae [5]): 128 µg/mL (≈ 171 µM) | MIC (Escherichia coli): 64 µg/mL (≈ 85.6 µM) | MIC (Streptococcus pneumoniae [6]): 128 µg/mL (≈ 171 µM) | MIC (Pseudomonas aeruginosa): 32 µg/mL (≈ 42.8 µM) | MIC (Streptococcus pneumoniae [7]): 0.125 µg/mL (≈ 0.167 µM) | MIC (Streptococcus pneumoniae [8]): 4 µg/mL (≈ 5.35 µM)
